# Data reported in ChEMBL document CHEMBL5291721, “A preclinical secondary pharmacology resource illuminates target-adverse drug reaction associations of marketed drugs” (Nat Commun, 2023).
# Key:
# [1] = molecular target: Sodium-dependent dopamine transporter (Homo sapiens, UniProt Q01959)
# [2] = molecular target: T1, Muscarinic acetylcholine receptor M2 (Homo sapiens, UniProt P08172)
# T1 sequence (P08172 whole entry): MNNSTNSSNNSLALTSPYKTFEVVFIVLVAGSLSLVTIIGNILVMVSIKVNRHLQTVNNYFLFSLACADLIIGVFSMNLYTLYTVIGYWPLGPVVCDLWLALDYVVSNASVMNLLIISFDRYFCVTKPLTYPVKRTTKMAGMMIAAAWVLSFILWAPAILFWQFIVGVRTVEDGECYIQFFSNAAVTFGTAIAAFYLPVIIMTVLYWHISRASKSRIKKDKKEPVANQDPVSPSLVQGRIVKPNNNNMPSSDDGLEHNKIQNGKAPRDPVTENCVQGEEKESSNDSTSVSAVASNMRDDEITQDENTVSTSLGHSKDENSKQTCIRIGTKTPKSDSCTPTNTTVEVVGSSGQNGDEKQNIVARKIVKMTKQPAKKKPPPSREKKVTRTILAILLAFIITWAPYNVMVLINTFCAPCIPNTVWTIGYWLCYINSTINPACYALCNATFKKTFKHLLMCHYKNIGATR
# Thromboxane A2 receptor = molecular target: T2, Thromboxane A2 receptor (Homo sapiens, UniProt P21731); format: functional, cell-based
# T2 sequence (P21731 whole entry): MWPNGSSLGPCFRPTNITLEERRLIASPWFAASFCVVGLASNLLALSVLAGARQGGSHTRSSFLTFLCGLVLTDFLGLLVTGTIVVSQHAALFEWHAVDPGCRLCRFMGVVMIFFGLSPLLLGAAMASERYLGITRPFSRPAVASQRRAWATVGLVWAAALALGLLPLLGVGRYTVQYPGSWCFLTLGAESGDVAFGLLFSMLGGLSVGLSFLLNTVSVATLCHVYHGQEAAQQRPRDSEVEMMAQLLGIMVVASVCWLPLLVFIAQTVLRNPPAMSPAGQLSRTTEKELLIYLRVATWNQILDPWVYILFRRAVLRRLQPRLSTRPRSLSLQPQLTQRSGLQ
# [3] = molecular target: Delta-type opioid receptor (Homo sapiens, UniProt P41143)
# [4] = molecular target: T3, 5-hydroxytryptamine receptor 1A (Homo sapiens, UniProt P08908); format: functional, cell-based
# T3 sequence (P08908 whole entry): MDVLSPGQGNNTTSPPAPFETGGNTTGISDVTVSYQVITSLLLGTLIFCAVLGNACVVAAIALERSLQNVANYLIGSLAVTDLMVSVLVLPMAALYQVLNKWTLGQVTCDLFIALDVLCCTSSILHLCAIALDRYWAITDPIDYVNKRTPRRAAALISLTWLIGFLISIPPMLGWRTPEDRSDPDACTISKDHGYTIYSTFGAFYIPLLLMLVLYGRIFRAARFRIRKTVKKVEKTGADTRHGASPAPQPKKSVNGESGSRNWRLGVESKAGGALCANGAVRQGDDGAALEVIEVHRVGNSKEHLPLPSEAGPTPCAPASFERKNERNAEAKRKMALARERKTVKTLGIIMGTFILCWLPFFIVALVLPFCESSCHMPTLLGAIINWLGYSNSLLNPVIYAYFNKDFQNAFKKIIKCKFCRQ
# [5] = molecular target: T4, Prostaglandin G/H synthase 1 (Rattus norvegicus, UniProt Q63921); format: functional
# T4 sequence (Q63921 whole entry): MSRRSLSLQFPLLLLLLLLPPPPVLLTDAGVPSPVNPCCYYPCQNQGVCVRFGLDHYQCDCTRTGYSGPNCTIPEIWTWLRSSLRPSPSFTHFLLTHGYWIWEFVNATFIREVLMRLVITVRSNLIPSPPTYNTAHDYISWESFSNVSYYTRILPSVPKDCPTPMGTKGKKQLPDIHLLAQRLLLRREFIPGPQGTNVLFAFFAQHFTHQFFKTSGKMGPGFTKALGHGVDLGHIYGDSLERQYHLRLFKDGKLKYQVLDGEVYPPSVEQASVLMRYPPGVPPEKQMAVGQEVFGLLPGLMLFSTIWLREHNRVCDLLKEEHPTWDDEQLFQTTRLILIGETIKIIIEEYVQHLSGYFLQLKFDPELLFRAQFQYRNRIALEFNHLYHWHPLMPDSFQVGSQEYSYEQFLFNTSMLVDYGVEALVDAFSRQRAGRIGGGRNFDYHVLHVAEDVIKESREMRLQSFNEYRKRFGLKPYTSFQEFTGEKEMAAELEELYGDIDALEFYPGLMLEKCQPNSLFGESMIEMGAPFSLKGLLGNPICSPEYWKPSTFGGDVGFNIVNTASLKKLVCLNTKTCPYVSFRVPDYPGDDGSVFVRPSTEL
# Adenosine receptor A3 = molecular target: T5, Adenosine receptor A3 (Homo sapiens, UniProt P0DMS8)
# T5 sequence (P0DMS8 whole entry): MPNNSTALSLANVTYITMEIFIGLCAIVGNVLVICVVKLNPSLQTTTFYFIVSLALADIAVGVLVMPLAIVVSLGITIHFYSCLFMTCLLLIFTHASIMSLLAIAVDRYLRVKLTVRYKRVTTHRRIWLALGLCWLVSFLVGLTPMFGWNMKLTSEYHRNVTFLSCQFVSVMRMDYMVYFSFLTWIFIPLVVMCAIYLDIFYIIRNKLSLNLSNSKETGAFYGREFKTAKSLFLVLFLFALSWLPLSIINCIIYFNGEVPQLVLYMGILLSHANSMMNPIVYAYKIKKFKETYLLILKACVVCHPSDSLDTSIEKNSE
# [6] = molecular target: 5-hydroxytryptamine receptor 2B (Homo sapiens, UniProt P41595); format: functional, cell-based
# [7] = molecular target: Growth hormone secretagogue receptor type 1 (Homo sapiens, UniProt Q92847)
# [8] = molecular target: T6, Type-1 angiotensin II receptor (Homo sapiens, UniProt P30556)
# T6 sequence (P30556 whole entry): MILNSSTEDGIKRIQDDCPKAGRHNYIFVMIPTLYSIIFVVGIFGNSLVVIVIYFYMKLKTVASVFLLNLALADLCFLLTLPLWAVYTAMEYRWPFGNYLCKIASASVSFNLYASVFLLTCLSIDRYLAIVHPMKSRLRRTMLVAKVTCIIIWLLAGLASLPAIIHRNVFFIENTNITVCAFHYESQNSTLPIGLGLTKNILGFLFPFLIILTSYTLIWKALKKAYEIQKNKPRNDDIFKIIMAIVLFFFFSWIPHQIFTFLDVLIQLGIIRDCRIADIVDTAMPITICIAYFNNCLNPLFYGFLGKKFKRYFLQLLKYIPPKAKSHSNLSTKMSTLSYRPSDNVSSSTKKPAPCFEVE
# Mu-type opioid receptor = Mu-type opioid receptor (Homo sapiens, UniProt P35372)
# Further: assay procedure not described here.
# Sodium-dependent dopamine transporter, sequence (Q01959 whole entry): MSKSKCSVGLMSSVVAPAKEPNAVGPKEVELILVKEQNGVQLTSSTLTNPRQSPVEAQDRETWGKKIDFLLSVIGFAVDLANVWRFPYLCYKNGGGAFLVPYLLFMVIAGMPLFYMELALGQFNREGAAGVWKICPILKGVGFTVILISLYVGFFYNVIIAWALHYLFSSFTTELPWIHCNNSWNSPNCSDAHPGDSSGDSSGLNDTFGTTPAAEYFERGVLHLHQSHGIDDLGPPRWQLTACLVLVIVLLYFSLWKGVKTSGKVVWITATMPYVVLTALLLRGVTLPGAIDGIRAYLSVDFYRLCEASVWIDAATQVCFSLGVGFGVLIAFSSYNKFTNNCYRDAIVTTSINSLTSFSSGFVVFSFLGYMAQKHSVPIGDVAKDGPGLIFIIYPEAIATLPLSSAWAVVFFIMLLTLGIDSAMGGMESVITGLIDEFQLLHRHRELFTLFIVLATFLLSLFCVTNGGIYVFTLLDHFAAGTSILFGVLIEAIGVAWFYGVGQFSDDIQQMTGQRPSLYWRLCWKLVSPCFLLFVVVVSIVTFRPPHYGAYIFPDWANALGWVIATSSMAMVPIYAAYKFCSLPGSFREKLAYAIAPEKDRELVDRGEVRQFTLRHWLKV
# 5-hydroxytryptamine receptor 2B, sequence (P41595 whole entry): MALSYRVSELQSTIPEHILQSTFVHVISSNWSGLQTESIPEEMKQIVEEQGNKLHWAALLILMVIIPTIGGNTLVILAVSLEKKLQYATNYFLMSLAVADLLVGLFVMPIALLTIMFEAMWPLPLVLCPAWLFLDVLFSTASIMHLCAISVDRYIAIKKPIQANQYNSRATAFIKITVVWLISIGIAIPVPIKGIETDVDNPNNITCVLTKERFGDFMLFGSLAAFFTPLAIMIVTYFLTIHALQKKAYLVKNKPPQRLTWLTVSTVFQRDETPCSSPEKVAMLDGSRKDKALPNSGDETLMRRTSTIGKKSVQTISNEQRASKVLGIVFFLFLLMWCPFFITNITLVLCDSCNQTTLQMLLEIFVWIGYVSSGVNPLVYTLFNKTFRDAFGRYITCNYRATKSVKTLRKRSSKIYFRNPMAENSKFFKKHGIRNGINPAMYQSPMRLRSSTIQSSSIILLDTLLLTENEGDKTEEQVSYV
# Growth hormone secretagogue receptor type 1, sequence (Q92847 whole entry): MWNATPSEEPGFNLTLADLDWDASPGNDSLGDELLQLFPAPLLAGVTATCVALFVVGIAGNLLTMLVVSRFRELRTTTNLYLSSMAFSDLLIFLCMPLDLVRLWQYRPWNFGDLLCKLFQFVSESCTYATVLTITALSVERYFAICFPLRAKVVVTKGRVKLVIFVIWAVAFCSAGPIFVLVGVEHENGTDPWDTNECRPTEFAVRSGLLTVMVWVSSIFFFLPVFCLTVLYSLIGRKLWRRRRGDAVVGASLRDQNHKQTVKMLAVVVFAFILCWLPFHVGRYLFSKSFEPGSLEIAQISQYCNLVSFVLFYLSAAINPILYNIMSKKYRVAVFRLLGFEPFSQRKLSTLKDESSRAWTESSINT
# Delta-type opioid receptor, sequence (P41143 whole entry): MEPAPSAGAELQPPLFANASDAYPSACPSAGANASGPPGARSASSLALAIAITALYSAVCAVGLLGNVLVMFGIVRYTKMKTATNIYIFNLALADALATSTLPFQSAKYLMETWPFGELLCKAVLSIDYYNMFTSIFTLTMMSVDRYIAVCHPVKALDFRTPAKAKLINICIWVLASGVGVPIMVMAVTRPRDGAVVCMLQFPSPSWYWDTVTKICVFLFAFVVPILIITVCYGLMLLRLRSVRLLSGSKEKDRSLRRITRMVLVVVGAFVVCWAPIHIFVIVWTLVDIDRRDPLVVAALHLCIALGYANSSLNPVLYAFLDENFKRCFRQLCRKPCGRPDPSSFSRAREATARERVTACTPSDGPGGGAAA
# Mu-type opioid receptor, sequence (P35372 whole entry): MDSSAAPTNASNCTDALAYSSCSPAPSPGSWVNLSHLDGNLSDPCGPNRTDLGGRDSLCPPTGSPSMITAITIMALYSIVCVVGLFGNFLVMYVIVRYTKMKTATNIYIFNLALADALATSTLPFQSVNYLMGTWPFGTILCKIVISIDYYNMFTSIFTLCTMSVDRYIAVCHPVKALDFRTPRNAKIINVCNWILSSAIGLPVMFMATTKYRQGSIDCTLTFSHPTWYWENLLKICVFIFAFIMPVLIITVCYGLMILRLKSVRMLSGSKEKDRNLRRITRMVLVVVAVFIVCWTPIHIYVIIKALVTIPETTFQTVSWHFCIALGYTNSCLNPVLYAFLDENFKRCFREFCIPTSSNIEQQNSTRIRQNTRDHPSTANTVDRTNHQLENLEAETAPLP
Compound,AC50 [1],AC50 [2],AC50 (Thromboxane A2 receptor),AC50 [3],AC50 [4],AC50 [5],AC50 (Adenosine receptor A3),AC50 [6],AC50 [7],AC50 [8],AC50 (Mu-type opioid receptor)
CCC(=O)O[C@H]1[C@H](O[C@@H]2[C@@H](C)[C@H](O[C@H]3C[C@@](C)(OC)[C@@H](O)[C@H](C)O3)[C@@H](C)C(=O)O[C@H](CC)[C@@](C)(O)[C@H](O)[C@@H](C)C(=O)[C@H](C)C[C@@]2(C)O)O[C@H](C)C[C@@H]1N(C)C [ERYTHROMYCIN PROPIONATE],29.1 µM,> 30 µM,> 30 µM,–,–,–,–,–,–,–,–
COc1ccc2c(c1)C(=O)N(CCc1ccc(S(=O)(=O)NC(=O)NC3CCCCC3)cc1)C(=O)C2(C)C [GLIQUIDONE],–,–,–,> 30 µM,> 30 µM,> 30 µM,> 30 µM,> 30 µM,> 30 µM,> 30 µM,–
CN1CCCC(CN2c3ccccc3Sc3ccccc32)C1 (stereo not drawn) [MEPAZINE],27.7 µM,0.347 µM,> 30 µM,–,–,–,–,–,–,–,–
Cc1cccc(C)c1OCC(C)N (stereo not drawn) [MEXILETINE],–,–,–,–,> 30 µM,> 10 µM,> 30 µM,> 30 µM,> 30 µM,> 30 µM,–
NC(=O)c1ncn([C@@H]2O[C@H](CO)[C@@H](O)[C@H]2O)c1O [MIZORIBINE],–,–,–,> 30 µM,> 30 µM,> 30 µM,> 30 µM,> 30 µM,> 30 µM,> 30 µM,–
OCCN1CCN(CCCN2c3ccccc3C=Cc3ccccc32)CC1 [OPIPRAMOL],10.9 µM,9.58 µM,> 30 µM,> 30 µM,> 30 µM,> 30 µM,> 30 µM,> 30 µM,> 30 µM,> 30 µM,–
Cc1cc2c(cc1CC(=O)c1sccc1S(=O)(=O)Nc1onc(C)c1Cl)OCO2 [SITAXENTAN],> 30 µM,> 30 µM,> 30 µM,–,–,–,–,–,–,–,–
CNC(=O)c1cc(Oc2ccc(NC(=O)Nc3ccc(Cl)c(C(F)(F)F)c3)cc2)ccn1 [SORAFENIB],–,–,–,> 30 µM,–,> 30 µM,1.88 µM,–,> 30 µM,11 µM,> 30 µM
CS(=O)(=O)c1ccc([C@@H](O)[C@@H](CO)NC(=O)C(Cl)Cl)cc1 [THIAMPHENICOL],> 30 µM,> 30 µM,> 30 µM,> 30 µM,> 30 µM,> 30 µM,> 30 µM,> 30 µM,> 30 µM,> 30 µM,–
Cc1ccc(O)c2ncccc12 [TILIQUINOL],> 30 µM,> 30 µM,> 30 µM,–,–,–,–,–,–,–,–
CC(=O)OC[C@H]1O[C@@H](n2ccc(=O)[nH]c2=O)[C@H](OC(C)=O)[C@@H]1OC(C)=O [URIDINE TRIACETATE],> 30 µM,> 30 µM,> 30 µM,–,–,–,–,–,–,–,–
CCCS(=O)(=O)Nc1ccc(F)c(C(=O)c2c[nH]c3ncc(-c4ccc(Cl)cc4)cc23)c1F [VEMURAFENIB],–,–,–,> 30 µM,> 30 µM,> 30 µM,18 µM,> 30 µM,> 30 µM,> 30 µM,–
